Where a name gives a salt, the structure may show the parent alone. Read-outs that look alike come from different tables or passages of the source.
Tests used:
[1] = target: T1, Human recombinant MKlp2 motor domain1-519, His tagged (Homo sapiens, UniProt O95235); experiment: Microtubule stimulated ATPase activity of the MKlp2 motor domain (Kinesin ELIPA Assay Kit); type: biochemical
T1 construct: Human recombinant MKlp2 motor domain1-519, His tagged; His; purchased Cytoskeleton MP05
T1 sequence (O95235 1-519): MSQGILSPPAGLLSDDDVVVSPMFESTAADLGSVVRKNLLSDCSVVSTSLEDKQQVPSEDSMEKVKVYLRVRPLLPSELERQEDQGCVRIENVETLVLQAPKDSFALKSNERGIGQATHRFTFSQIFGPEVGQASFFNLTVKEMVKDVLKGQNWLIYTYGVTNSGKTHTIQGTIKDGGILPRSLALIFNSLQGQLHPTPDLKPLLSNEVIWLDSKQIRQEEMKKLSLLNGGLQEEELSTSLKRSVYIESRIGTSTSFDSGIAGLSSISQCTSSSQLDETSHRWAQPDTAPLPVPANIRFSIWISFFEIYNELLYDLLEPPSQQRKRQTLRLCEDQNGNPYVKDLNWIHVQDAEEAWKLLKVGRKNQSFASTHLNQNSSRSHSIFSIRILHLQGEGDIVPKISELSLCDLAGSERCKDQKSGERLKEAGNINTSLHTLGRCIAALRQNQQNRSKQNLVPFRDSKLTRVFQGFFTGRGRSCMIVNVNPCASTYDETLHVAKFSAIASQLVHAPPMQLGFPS
Experimental: Evaluation of Inhibitory Effects on the Microtubule Stimulated ATPase Activity of the MKlp2 Motor Domain.
MKlp2 ATPase activity was measured by monitoring real time free phosphate generation using the Kinesin ELIPA Assay Kit. The assay is based upon an absorbance shift (330 nm-360 nm) that occurs when 2-amino-6-mercapto-7-methylpurine ribonucleoside (MESG) is catalytically converted to 2-amino-6-mercapto-7-methylpurine in the presence of inorganic phosphate (Pi). One molecule of Pi will yield one molecule of 2-amino-6-mercapto-7-methylpurine in an essentially irreversible reaction.
All experiments were performed at 22° C.
Condition 1, compound preparation.
The compounds were dissolved in DMSO at 30× the maximum concentration to be tested. […] DMSO solutions were pipetted directly into each well.
Condition 2, reaction's “motor mix”.
The following were mixed sequentially in the specified order at RT to obtain the “motor mix”.
20 mL: 15 mM Pipes-NaOH pH 7.0, 10 mM MgCl2, 30 μM Tx (Buffer 1).
10 mL: 5× MSEG (ELIPA 1 reagent, Cat. # BK051).
10 mL: 2.5 mg/mL porcine brain microtubules (3×10 mg Cat. # MT002-XL resuspended in 12 mL of Buffer 1).
0.5 mL: 100×PNP (ELIPA 2 reagent, cat. # BK051).
Condition 3, reaction initiation.
The motor mix was pipetted into each well to obtain 80% of total volume. The reaction was initiated by adding a 20% of total volume of 5 mM ATP into each well.
The reactions were measured in a SpectraMax M2 (Molecular Devices) set in kinetic mode and 360 nm absorbance wavelength. The start protocol was 5 second rapid circular mixing, 21 readings, 30 seconds apart.

K562 cells = experiment: Cytotoxicity on human cancer cells (WST-1), K562; type: cell-based
Experimental: Evaluation of Cytotoxicity Effects on Human Cancer Cells
The effects of the compounds of the invention on the viability of human cancer cells were studied on various human cancer cell lines of differing tissue origins (A549, NCI-H460: lung cancer; MDA-MB-231: breast cancer; HCT-116, HT-29: colon cancer; MIA-PaCa-2: pancreatic cancer; K562: leukaemia). All cell lines were obtained from ATCC or ECACC. Cells were cultured in the culture media described below, under a 37° C., 5% CO2 humidified atmosphere, according to a standard operating procedure.
On D0, the cells were plated in 90 μl in 96 wells plates at densities ranging from 500 to 5,000 cells per well.
Following addition of the test substance the cells were protected from light. The solvents (DMSO and specific control solvent were added at the maximal concentration: 10 μl/well (3 wells/condition)).
On D4, the Cell Proliferation Reagent WST-1 was added to each well (10 μl/well), according to a standard operating procedure. The cells were then incubated for 30 min to 4 h at 37° C.-5% CO2. After these incubations, the 96-well plates were shaken thoroughly for 1 min with Multiskan® EX apparatus (Thermo Labsystems, France). The absorbence was measured at 450 nm, the reference wavelength being 620 nm. The analysis of the results was performed with the Ascent software 2.6 (Thermo Labsystems, France), Microsoft Excel 2003 and GraphPad Prism 4.03 softwares to give the concentration of the compounds that induces the death of 50% of the cells (IC50).

[2] = Table 3, 22° C., read-out: MKIp2 IC50
[3] = Table 4, K562 leukaemia cells, WST-1 on D4, read-out: K562 IC50
[4] = Table 6 (prodrugs, formula II), read-out: MKIp2 IC50
[5] = Table 6 (prodrugs, formula II), K562 cells, WST-1 on D4, read-out: K562 IC50
[6] = MKIp2 IC50 (μM), Table 3, 22° C.

SMILES | IC50 [1, 2] | IC50 (K562 cells; [3]) | also measured
COc1ccc2c(/C(C#N)=C/c3cc(C#N)ccc3OC)c[nH]c2c1 [Example 54, (Z)-3-(2-cyano-2-(6-methoxy-1H-indol-3-yl)vinyl)-4-methoxybenzonitrile] | 1.4 µM | 0.02 µM | 
COc1ccc(C#N)cc1/C=C(\C#N)c1cn(C(=O)C(C)(C)C)c2ccc(Br)cc12 [Example 58, (Z)-3-(2-(5-bromo-1-pivaloyl-1H-indol-3-yl)-2-cyanovinyl)-4-methoxybenzonitrile] |  |  | IC50 [1, 4]: 7.5 µM; IC50 (K562 cells; [5]): 0.06 µM
COc1ccc(C#N)cc1/C=C(\C#N)c1cn(C(=O)CC(N)C(=O)OCc2ccccc2)c2ccc(Br)cc12 (stereo in doubt) [Example 67, (R,Z)-benzyl-2-amino-4-(5-bromo-3-(1-cyano-2-(5-cyano-2-methoxyphenyl)vinyl)-1H-indol-1-yl)-4-oxobutanoate] |  |  | IC50 [1, 4]: 3.1 µM; IC50 (K562 cells; [5]): 0.04 µM
COc1ccc(C#N)cc1/C=C(\C#N)c1cn(C(=O)[C@H](N)CCCCN)c2ccc(Br)cc12 [Example 76, (R,Z)-3-(2-(5-bromo-1-(2,6-diaminohexanoyl)-1H-indol-3-yl)-2-cyanovinyl)-4-methoxybenzonitrile dihydrochloride] |  |  | IC50 [1, 4]: 1.3 µM; IC50 (K562 cells; [5]): 0.04 µM
COc1ccc(C#N)cc1/C=C(\C#N)c1cn(C(=O)C2CCC(=O)N2)c2ccc(Br)cc12 (stereo not shown) [Example 75, (Z)-3-(2-(5-bromo-1-(5-oxopyrrolidine-2-carbonyl)-1H-indol-3-yl)-2-cyanovinyl)-4-methoxybenzonitrile] |  |  | IC50 [1, 4]: 4.6 µM; IC50 (K562 cells; [5]): 0.02 µM
COc1ccncc1/C=C(/C#N)c1c[nH]c2ccc(Br)cc12 [Example 5b, (E)-2-(5-bromo-1H-indol-3-yl)-3-(4-methoxypyridin-3-yl)acrylonitrile] | 0.61 µM | 3.92 µM | 
COc1ccc(C#N)cc1/C=C(\C#N)c1cn(C(=O)C[C@H](C)N)c2ccc(Br)cc12 [Example 70, (S,Z)-3-(2-(1-(3-aminobutanoyl)-5-bromo-1H-indol-3-yl)-2-cyanovinyl)-4-methoxybenzonitrile hydrochloride] |  |  | IC50 [1, 4]: > 50 µM; IC50 (K562 cells; [5]): 0.01 µM
N#C/C(=C\c1cnccc1-c1ccoc1)c1c[nH]c2ccc(Br)cc12 [Example 34, (Z)-2-(5-bromo-1H-indol-3-yl)-3-(4-(furan-3-yl)pyridin-3-yl)acrylonitrile] | 0.07 µM | 2.2 µM | 
COc1ccc(C#N)cc1/C=C(\C#N)c1cn(C(=O)CN2CCNCC2)c2ccc(Br)cc12 [Example 72, (Z)-3-(2-(5-bromo-1-(2-(piperazin-1-yl)acetyl)-1H-indol-3-yl)-2-cyanovinyl)-4-methoxybenzonitrile Hydrochloride] |  |  | IC50 [1, 4]: > 50 µM; IC50 (K562 cells; [5]): 0.01 µM
COc1ccncc1/C=C(\C#N)c1c[nH]c2ccc(Cl)cc12 [Example 9, (Z)-2-(5-chloro-1H-indol-3-yl)-3-(4-methoxypyridin-3-yl)acrylonitrile] | 0.1 µM | 1.4 µM | 
N#C/C(=C\c1cnccc1-c1ccoc1)c1c[nH]c2ccc(Cl)cc12 [Example 29, (Z)-2-(5-chloro-1H-indol-3-yl)-3-(4-(furan-3-yl)pyridin-3-yl)acrylonitrile] | 0.03 µM | 4.7 µM | 
N#C/C(=C\c1cc(C#N)ccc1OC(F)(F)F)c1c[nH]c2ccc(Br)cc12 [Example 53, (Z)-3-(2-(5-bromo-1H-indol-3-yl)-2-cyanovinyl)-4-(trifluoromethoxy)benzonitrile] |  | 0.38 µM | 
COc1ccc2[nH]cc(/C(C#N)=C/c3cnccc3OC)c2c1 [Example 12, (Z)-2-(5-methoxy-1H-indol-3-yl)-3-(4-methoxypyridin-3-yl)acrylonitrile] | 0.3 µM | 0.9 µM | 
N#C/C(=C\c1cc(C#N)ccc1O)c1c[nH]c2ccc(Br)cc12 [Example 51, (Z)-3-(2-(5-bromo-1H-indol-3-yl)-2-cyanovinyl)-4-hydroxybenzonitrile] |  | 0.5 µM | 
N#CC(=Cc1cccnc1)c1c[nH]c2ccccc12 [W02010/150211-Example 1, reference compound] |  |  | IC50 (K562 cells; K562, read-out: K562 IC50 (μM)): 21.4 µM
N#C/C(=C\c1cnccc1O)c1c[nH]c2ccc(Cl)cc12 [Example 50, (Z)-2-(5-chloro-1H-indol-3-yl)-3-(4-hydroxypyridin-3-yl)acrylonitrile] |  | 14.7 µM | 
CCSc1ccc(C#N)cc1/C=C(\C#N)c1c[nH]c2ccc(Cl)cc12 [Example 42, (Z)-3-(2-(5-chloro-1H-indol-3-yl)-2-cyanovinyl)-4-(ethylthio)benzonitrile] | 0.6 µM |  | 
COc1ccc2[nH]cc(C(C#N)=Cc3cnccc3Cl)c2c1 [W02010/150211-Example 47, reference compound] |  |  | IC50 [1, 6]: 1.6 µM
COc1ccc2[nH]cc(C(C#N)=Cc3ccc(F)nc3)c2c1 [W02010/150211-Example 28, reference compound] |  |  | IC50 [1, 6]: 2.4 µM
COc1ccncc1/C=C(\C#N)c1c[nH]c2cc(Br)ccc12 [Example 45, (Z)-2-(6-bromo-1H-indol-3-yl)-3-(4-methoxypyridin-3-yl)acrylonitrile] | 0.2 µM |  | 
N#C/C(=C\c1cc(C#N)ccc1OC(F)(F)F)c1c[nH]c2ccc(Cl)cc12 [Example 52, (Z)-3-(2-(5-chloro-1H-indol-3-yl)-2-cyanovinyl)-4-(trifluoromethoxy)benzonitrile] |  | 0.85 µM | 
CCOc1ccncc1/C=C(\C#N)c1c[nH]c2ccc(Br)cc12 [Example 13, (Z)-2-(5-bromo-1H-indol-3-yl)-3-(4-ethoxypyridin-3-yl)acrylonitrile] | 0.1 µM |  | 
N#C/C(=C\c1cnccc1-c1cccc(Br)c1)c1c[nH]c2ccc(Br)cc12 [Example 17, (Z)-2-(5-bromo-1H-indol-3-yl)-3-(4-(3-bromophenyl)pyridin-3-yl)acrylonitrile] | 0.3 µM |  | 
CC(C)Oc1ccc2[nH]cc(C(C#N)=Cc3cccnc3)c2c1 [W02010/150211-Example 23, reference compound] |  |  | IC50 [1, 6]: 5.2 µM
CCSc1ccncc1/C=C(\C#N)c1c[nH]c2ccc(Br)cc12 [Example 16, (Z)-2-(5-bromo-1H-indol-3-yl)-3-(4-(ethylthio)pyridin-3-yl)acrylonitrile] | 0.3 µM |  | 
COc1ccc2[nH]cc(C(C#N)=Cc3cccnc3)c2c1 [W02010/150211-Example 4, reference compound] |  |  | IC50 [1, 6]: 4.2 µM
N#C/C(=C\c1cc(C#N)ccc1Oc1ccc(F)cc1)c1c[nH]c2ccc(Br)cc12 [Example 37, (Z)-3-(2-(5-bromo-1H-indol-3-yl)-2-cyanovinyl)-4-(4-fluorophenoxy)benzonitrile] | 0.9 µM |  | 
N#C/C(=C\c1cnccc1-n1cncn1)c1c[nH]c2ccc(Br)cc12 [Example 32, (Z)-3-(4-(1H-1,2,4-triazol-1-yl)pyridin-3-yl)-2-(5-bromo-1H-indol-3-yl)acrylonitrile] | 0.06 µM |  | 

— patent US10189782B2, “Derivatives of indole for the treatment of cancer, viral infections and lung diseases” (BIOKINESIS, priority 2012, dated 2019)
